This note sets out measurements from patent US20240117431A1, “STEM-CELL BASED BIOMARKER DISCOVERY” (THE REGENTS OF THE UNIVERSITY OF CALIFORNIA, priority 2020, published 2024).

The subject of assay [1] is GFP-3×MT-TgUPRT HEK293T cells co-cultured with mCherry cells. Briefly: Co-culture RT-qPCR enrichment of GFP transcript over mCherry. The class given is cell-based. On the procedure: FIGS. 10A, 10B, 100, 10D, 10E show characterizing the stringency of the 2 (5VU)-mutant TgUPRT pair. […] Cells were transfected with TgUPRT variants and incubated with 2 at 1 mM final concentration for 24h. 2 incorporation was imaged using two-step labeling (1) IEDDA using tetrazene-biotin then followed by Alexa488-streptavidin. […] Streptavidin-HRP (Strep-HRP) was used for assessment of biotin level resulting from clicked RNA, and methylene blue (MeBI) staining served as loading control. […] Cells were treated the same as in panel 10B and the RNA appended with biotin and enriched before RT RT-qPCR.
Co-culture of HEK cells containing GFP or mCherry expression plasmids: HEK293 (5×105) cells seeded in 6-well plate. Thirty-six hour post seeding, HEK cells were transfected with 1 μg of single plasmid containing EGFP, mCherry, EGFP-TgUPRT-WT, or EGFP-TgUPRT-Mut. Twenty-four hour post transfection, transiently transfected HEK cells were trypsinized and seeded into a 5 cm plate. Equal amounts of cells (approximately 2×106 in total) where 1×10^6 cells containing GFP or GFP-TgUPRT plasmids and 1×10^6 cells containing mCherry construct) were co-cultured. Three co-culture conditions are Condition (A): mCherry and EGFP, Condition (B): mCherry and EGFP-WT-TgUPRT, and Condition (C): mCherry and EGFP-3×MT-TgUPRT (pKN-CMV-EGFP-TgUPRT-Mut16 or -Mut17). […]
(In qPCR the cycle at which signal appears reflects the starting amount.)

The next assay deals with mutants TgUPRT. Briefly: Phosphoribosyltransferase activity with recombinant TgUPRT mutants. The class given is biochemical, Toxoplasma gondii. The settings on record: five recombinant TgUPRT mutants, FIG. 9A. The protocol: Enzyme activity assay: The standard activity assay was performed by incubating 10 μL of free extract or 0.5 μg of pure His-tag enzyme with 1 mM Phosphoribosyl pyrophosphate (PRPP), 1 mM uracil, 5 mM MgCl2 in 50 mM PBS buffer pH 7.4 in a final volume of 80 μL. The reaction mixture was incubated at 37° C. for 2-5 min (300 rpm). Enzyme was inactivated by adding 80 μL of cold methanol in ice-bath and heating for 5 min at 100° C. After centrifugation at 9000×g for 5 min, samples were half-diluted with water and the NMP production was analysed by HPLC to quantitatively measure the reaction products as described below in the analytical methods. All determinations were carried out in triplicate assuming Michaelis-Menten conditions, and the maximum error was below 5%. In such conditions, one international activity unit (IU) was defined as the amount of enzyme producing 1 μmol/min of UMP under the assay conditions.
Substrate specificity studies Enzymatic synthesis of the different pyrimidine nucleoside monophosphate (NMP) derivatives was carried out by incubating 0.5 μg of pure His-tag enzyme with 1 mM PRPP, 1 mM pyrimidine base and 5 mM MgCl2 in 50 mM PBS buffer pH 7.4 (1.6-3.2% v/v DSMO). The experiments were performed according to the standard assay. Subsequently, the reaction mixture was processed as described above and the NMP production was analyzed by HPLC.
Analytical methods: The production of NMPs was quantitatively measured with an ACE EXCEL 5 μm CN-ES 250×4.6 mm equilibrated with 100% trimethyl ammonium acetate at a flow rate of 0.8 mL/min. Retention times for the reference bases and NMPs (hereafter abbreviated according to the recommendations of the IUPAC-IUB Commission on Biochemical Nomenclature) were as follows: uracil (Ura), 4.7 min; 5-azido uracil (5-AUra). […]
Following these exciting observations, a more quantitative approach to examined for differences between enzyme mutants and their enzyme kinetics with the analogs. […] Each purified enzyme was incubated with the different substrates and phosphoribosyltransferase activity was measured (FIG. 9A).

In the case of `C#Cc1c[nH]c(=O)[nH]c1=O` [compound 1, 5-ethynylpyrimidine-2,4(1H,3H)-dione], the “enrichment of GFP transcript in -UPRT cells” value in assay [1] (co-culture, RT-qPCR) is “Background enrichment”. In the assay on mutants TgUPRT, the “reactivity with the mutants (phosphoribosyltransferase activity)” value is given as 10 IU/mg.
For `C=Cc1c[nH]c(=O)[nH]c1=O` [compound 2, 5-Vinylpyrimidine-2,4(1H,3H)-dione], the “enrichment of GFP transcript, triple mutant cells compared to no UPRT cells” value in assay [1] ({}) is roughly 100 fold. In addition, in the assay with mutants TgUPRT, the “reactivity with the mutants (phosphoribosyltransferase activity)” value was “increased dramatically”.
